For one experiment, the target named is T1, Ephrin type-A receptor 1 (Homo sapiens, UniProt P21709).
T1 sequence (P21709 whole entry): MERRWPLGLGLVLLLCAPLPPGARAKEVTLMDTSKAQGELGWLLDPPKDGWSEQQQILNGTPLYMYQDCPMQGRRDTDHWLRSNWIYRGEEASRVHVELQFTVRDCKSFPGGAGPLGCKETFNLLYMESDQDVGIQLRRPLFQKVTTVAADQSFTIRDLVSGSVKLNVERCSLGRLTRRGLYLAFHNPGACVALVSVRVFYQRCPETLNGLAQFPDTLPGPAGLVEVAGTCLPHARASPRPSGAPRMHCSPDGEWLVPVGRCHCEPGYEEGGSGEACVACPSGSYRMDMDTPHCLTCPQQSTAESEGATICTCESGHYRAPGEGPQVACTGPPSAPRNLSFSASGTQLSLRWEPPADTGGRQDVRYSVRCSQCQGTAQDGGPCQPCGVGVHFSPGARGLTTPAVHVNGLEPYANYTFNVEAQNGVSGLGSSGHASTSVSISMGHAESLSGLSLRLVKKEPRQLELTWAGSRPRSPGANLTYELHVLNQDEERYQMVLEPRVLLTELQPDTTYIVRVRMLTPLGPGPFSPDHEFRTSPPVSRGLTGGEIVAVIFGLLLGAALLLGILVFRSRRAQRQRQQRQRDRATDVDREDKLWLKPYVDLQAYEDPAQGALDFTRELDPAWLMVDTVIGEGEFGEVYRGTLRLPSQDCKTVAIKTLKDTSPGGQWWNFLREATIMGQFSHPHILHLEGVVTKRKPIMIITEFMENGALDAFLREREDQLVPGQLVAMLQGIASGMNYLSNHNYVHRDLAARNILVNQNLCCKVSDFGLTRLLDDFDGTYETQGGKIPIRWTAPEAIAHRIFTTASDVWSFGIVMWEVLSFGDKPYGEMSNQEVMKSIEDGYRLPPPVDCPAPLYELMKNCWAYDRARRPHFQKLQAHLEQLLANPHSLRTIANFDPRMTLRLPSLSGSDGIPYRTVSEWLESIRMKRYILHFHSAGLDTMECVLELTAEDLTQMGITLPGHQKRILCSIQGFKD

Experiment [1] deals with High affinity nerve growth factor receptor (Homo sapiens, UniProt P04629).
High affinity nerve growth factor receptor, sequence (P04629 whole entry, the tested form may be a part): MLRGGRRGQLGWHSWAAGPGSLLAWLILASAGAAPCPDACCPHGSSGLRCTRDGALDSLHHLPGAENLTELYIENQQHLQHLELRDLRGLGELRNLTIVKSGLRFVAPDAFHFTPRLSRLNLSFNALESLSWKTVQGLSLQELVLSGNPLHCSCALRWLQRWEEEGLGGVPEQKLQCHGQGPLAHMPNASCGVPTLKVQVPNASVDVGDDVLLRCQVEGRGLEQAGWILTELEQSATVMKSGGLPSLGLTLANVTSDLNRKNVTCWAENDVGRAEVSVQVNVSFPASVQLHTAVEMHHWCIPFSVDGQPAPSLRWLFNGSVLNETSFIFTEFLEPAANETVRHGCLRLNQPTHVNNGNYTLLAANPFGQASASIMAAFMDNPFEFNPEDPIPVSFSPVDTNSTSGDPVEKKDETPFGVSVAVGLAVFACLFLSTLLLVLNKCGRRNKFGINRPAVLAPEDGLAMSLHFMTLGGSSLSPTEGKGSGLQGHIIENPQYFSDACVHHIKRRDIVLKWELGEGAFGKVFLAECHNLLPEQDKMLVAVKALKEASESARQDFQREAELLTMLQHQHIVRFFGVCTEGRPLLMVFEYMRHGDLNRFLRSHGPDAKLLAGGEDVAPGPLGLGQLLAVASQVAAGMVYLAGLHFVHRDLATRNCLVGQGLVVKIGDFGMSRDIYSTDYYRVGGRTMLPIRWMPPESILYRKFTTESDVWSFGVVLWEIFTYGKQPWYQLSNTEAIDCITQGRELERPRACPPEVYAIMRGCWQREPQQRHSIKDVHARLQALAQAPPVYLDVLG
Experiment [2] addresses Uncharacterized aarF domain-containing protein kinase 5 (Homo sapiens, UniProt Q3MIX3).
The target in experiment [3] is Serine/threonine-protein kinase Nek7 (Homo sapiens, UniProt Q8TDX7).
Serine/threonine-protein kinase Nek7, sequence (Q8TDX7 whole entry): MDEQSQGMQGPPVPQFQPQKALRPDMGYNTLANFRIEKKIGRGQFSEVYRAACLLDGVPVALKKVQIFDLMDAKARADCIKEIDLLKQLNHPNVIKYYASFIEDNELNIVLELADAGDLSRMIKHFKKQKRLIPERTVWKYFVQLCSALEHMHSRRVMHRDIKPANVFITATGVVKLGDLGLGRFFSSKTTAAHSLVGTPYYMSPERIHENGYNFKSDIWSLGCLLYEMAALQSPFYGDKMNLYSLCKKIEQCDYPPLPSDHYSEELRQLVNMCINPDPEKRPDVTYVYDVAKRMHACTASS
The target of experiment [4] is Dual specificity testis-specific protein kinase 1 (Homo sapiens, UniProt Q15569).
Experiment [5] concerns the target T2, Protein kinase C zeta type (Homo sapiens, UniProt Q05513).
T2 sequence (Q05513 whole entry): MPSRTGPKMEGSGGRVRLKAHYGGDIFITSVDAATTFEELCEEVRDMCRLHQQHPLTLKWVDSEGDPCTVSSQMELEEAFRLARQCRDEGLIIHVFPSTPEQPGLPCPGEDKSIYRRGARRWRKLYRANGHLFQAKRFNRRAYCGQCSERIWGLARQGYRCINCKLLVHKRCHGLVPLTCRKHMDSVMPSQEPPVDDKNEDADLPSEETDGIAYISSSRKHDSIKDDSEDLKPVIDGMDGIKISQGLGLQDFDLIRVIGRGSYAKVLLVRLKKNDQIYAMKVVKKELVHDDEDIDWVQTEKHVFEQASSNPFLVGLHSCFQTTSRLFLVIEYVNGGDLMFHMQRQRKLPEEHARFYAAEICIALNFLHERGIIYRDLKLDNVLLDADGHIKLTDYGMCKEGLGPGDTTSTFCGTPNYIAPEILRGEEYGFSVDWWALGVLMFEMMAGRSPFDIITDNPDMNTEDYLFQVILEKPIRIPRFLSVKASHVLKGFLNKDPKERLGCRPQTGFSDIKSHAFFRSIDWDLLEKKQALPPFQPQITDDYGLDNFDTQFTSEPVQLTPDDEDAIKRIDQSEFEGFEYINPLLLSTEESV

Experiment [6] deals with Membrane-associated progesterone receptor component 1 (Homo sapiens, UniProt O00264).
Membrane-associated progesterone receptor component 1, sequence (O00264 whole entry): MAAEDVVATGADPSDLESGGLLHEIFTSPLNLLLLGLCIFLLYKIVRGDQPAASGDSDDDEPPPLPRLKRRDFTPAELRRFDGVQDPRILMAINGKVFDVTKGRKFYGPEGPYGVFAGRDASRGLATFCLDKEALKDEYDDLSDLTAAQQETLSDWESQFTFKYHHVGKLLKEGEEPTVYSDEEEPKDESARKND
Experiment [7] deals with Serine/threonine-protein kinase PAK 6 (Homo sapiens, UniProt Q9NQU5).
Serine/threonine-protein kinase PAK 6, sequence (Q9NQU5 whole entry): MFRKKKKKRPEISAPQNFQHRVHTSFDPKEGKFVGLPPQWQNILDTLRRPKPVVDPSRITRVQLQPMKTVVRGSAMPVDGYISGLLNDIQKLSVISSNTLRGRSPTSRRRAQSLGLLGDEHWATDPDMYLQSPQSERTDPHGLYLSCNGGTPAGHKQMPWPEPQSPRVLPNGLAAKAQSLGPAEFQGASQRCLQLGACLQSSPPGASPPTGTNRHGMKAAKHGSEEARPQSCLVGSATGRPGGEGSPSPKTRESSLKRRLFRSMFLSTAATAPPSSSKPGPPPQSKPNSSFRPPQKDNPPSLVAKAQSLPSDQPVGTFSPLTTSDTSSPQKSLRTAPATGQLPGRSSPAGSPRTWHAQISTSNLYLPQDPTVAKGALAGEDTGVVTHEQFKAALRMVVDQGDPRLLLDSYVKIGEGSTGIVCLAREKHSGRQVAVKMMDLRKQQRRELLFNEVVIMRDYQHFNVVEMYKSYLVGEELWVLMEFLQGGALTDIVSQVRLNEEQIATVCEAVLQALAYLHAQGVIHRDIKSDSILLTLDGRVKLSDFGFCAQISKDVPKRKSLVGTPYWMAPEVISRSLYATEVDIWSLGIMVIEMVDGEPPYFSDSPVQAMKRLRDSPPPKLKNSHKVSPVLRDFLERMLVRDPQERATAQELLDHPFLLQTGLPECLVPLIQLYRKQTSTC
Experiment [8] deals with T3, Thyroid hormone receptor-associated protein 3 (Homo sapiens, UniProt Q9Y2W1).
T3 sequence (Q9Y2W1 whole entry): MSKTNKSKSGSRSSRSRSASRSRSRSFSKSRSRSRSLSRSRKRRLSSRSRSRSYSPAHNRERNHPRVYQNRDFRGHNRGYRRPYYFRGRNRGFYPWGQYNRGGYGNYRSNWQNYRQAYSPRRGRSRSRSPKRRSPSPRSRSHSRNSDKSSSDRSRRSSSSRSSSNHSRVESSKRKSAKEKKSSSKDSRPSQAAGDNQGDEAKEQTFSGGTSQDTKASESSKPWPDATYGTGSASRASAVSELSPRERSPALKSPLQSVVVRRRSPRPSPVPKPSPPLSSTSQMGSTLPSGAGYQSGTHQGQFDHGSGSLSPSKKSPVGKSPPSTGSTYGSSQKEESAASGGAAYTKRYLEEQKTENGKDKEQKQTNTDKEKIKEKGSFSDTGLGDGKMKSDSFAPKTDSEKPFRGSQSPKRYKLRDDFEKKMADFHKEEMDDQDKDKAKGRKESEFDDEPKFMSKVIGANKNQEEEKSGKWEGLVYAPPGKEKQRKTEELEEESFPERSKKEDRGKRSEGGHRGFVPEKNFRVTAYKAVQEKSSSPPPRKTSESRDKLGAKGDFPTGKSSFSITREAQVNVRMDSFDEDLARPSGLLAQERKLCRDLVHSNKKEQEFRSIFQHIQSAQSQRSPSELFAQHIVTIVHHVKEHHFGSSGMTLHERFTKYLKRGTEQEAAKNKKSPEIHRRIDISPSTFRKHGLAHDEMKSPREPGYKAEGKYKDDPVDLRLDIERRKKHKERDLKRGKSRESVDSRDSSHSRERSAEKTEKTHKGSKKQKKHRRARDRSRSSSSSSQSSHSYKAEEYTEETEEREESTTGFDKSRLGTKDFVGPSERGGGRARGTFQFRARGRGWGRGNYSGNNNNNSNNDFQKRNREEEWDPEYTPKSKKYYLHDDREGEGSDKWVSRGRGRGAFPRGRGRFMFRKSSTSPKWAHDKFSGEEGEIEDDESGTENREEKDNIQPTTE

Experiment [9] has as its target Protein kinase C theta type (Homo sapiens, UniProt Q04759).
The target in the next experiment is Ephrin type-A receptor 7 (Homo sapiens, UniProt Q15375).
Ephrin type-A receptor 7, sequence (Q15375 whole entry): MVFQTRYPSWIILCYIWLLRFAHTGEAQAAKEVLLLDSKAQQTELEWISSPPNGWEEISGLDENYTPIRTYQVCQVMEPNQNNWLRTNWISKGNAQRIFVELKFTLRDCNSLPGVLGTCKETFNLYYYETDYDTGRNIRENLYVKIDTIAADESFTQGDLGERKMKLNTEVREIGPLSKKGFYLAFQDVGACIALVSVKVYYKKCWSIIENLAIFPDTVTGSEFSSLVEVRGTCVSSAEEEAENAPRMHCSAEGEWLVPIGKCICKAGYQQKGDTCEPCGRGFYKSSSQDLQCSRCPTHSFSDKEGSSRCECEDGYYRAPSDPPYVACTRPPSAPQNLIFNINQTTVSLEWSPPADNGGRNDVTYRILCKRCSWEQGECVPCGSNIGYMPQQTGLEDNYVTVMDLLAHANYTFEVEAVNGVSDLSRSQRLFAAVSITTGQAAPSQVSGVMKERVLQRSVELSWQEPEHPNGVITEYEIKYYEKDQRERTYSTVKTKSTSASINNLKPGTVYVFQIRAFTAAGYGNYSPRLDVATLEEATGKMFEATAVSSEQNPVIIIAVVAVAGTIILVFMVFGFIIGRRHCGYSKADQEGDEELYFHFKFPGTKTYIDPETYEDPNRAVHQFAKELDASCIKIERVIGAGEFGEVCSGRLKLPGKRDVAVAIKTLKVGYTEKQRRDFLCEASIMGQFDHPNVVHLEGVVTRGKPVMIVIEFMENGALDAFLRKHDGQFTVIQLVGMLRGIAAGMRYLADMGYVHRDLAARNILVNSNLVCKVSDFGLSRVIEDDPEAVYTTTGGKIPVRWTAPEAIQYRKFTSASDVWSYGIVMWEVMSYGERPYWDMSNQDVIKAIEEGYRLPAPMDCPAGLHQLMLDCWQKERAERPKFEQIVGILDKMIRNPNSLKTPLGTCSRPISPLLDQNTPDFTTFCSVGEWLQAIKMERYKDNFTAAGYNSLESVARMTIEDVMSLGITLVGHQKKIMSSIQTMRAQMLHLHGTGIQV
The target of experiment [10] is Dual specificity protein kinase CLK4 (Homo sapiens, UniProt Q9HAZ1).
Dual specificity protein kinase CLK4, sequence (Q9HAZ1 whole entry): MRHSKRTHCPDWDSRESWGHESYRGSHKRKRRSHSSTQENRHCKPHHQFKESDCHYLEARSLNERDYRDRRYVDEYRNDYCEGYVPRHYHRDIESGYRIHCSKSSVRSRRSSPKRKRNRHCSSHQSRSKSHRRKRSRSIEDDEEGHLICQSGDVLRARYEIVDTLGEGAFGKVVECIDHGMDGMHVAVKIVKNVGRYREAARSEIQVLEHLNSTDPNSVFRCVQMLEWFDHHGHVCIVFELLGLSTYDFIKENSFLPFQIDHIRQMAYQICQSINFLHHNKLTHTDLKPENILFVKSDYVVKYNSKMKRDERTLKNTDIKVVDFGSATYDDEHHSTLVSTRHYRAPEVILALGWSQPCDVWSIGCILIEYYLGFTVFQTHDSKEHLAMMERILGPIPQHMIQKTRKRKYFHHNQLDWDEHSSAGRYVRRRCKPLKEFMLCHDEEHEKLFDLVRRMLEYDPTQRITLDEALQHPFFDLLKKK

Active and inactive are the calls of the source. A value given as a limit tells only on which side of the number the result lay.
Also: in the data inactive means no Kd found up to 30 µM.

Protein kinase C theta type, sequence (Q04759 whole entry): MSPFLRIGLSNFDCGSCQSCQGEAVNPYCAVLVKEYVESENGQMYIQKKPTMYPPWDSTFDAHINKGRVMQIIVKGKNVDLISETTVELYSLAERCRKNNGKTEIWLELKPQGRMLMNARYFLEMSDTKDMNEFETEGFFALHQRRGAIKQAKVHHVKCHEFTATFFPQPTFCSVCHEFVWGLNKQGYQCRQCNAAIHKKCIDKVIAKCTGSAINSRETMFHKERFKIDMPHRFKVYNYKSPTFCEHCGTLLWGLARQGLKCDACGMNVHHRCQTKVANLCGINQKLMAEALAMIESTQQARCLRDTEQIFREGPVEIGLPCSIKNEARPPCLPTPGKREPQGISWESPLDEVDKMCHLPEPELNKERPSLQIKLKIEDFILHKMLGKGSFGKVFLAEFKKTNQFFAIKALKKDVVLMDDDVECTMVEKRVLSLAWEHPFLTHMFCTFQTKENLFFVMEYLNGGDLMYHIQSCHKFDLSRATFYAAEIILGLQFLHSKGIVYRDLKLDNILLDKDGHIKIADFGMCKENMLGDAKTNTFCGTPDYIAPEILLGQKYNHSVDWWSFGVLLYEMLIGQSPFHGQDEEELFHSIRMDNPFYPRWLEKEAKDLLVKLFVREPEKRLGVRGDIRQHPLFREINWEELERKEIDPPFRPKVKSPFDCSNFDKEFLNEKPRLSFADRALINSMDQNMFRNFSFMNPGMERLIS
Uncharacterized aarF domain-containing protein kinase 5, sequence (Q3MIX3 whole entry, the tested form may be a part): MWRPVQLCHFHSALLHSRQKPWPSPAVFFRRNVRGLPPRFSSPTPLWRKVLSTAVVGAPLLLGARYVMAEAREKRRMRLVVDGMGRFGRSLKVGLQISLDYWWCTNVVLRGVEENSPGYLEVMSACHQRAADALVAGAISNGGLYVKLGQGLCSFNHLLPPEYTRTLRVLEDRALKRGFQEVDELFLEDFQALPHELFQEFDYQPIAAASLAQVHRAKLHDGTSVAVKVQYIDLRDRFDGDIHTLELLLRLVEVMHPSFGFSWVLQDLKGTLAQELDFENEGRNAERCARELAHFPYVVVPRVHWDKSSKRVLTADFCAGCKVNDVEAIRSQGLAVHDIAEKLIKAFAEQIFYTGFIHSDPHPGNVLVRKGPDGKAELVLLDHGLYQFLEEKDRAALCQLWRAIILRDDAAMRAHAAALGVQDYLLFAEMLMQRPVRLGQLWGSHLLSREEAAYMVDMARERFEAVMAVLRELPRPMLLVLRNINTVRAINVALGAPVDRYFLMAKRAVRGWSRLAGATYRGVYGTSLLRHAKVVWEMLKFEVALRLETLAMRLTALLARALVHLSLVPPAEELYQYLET

Take `O=C1NC(=O)/C(=C/c2ccc3nccc(-c4ccncc4)c3c2)S1` [GSK-1059615]: the Kd (on Ephrin type-A receptor 1; in [1]; in experiment [2]; in [3]; in experiment [4]; in [5]) was > 30 µM (inactive) each time. Moreover, the Kd (in experiment [6]; in [7]; in experiment [8]; in [9]; at Ephrin type-A receptor 7) was > 30 µM (inactive) each time.
For the compound `COc1cc(CCc2cc(NC(=O)c3ccc(N4C[C@@H](C)N[C@@H](C)C4)cc3)n[nH]2)cc(OC)c1` [AZD-4547], the Kd (in general, the constant that tells how readily two partners part at equilibrium) on Ephrin type-A receptor 1 was > 30 µM (inactive); in experiment [1] it was 2.25 µM; in experiment [2], > 30 µM (inactive); in experiment [10], > 30 µM (inactive); in [4] it was > 30 µM (inactive); in experiment [5], > 30 µM (inactive). Further, the Kd (in experiment [6]; in [7]; in [8]; in [9]; on Ephrin type-A receptor 7) was > 30 µM (inactive) throughout.
With `C[C@@H]1CN(Cc2ccc(F)cc2)[C@@H](C)CN1C(=O)c1cc2c(C(=O)C(=O)N(C)C)cn(C)c2cc1Cl` [TALMAPIMOD], the Kd (on Ephrin type-A receptor 1; in experiment [1]; in experiment [2]; in experiment [10]; in [4]; in experiment [5]) was > 30 µM (inactive) in each case. For the same compound, the Kd (in experiment [6]; in experiment [7]; in experiment [9]; on Ephrin type-A receptor 7) was > 30 µM (inactive) throughout.
`CN1CCC(COc2cnc(-c3cccc(Cn4nc(-c5cccc(C#N)c5)ccc4=O)c3)nc2)CC1` [TEPOTINIB]: the Kd (at Ephrin type-A receptor 1; in experiment [1]; in experiment [2]; in experiment [3]; in experiment [4]; in [5]) was > 30 µM (inactive) throughout. Also, the Kd (in experiment [6]; in experiment [7]; in experiment [8]; in [9]; at Ephrin type-A receptor 7) was > 30 µM (inactive) throughout.
Regarding `Cc1cc(-c2cc(O)ccc2Cl)cc2nnc(Nc3ccc(OCCN4CCCC4)cc3)nc12`, the Kd (at Ephrin type-A receptor 1; in experiment [1]; in [2]; in experiment [3]; in experiment [4]; in [5]) was > 30 µM (inactive) in each case. The Kd (in experiment [6]; in experiment [7]; in experiment [9]; at Ephrin type-A receptor 7) was > 30 µM (inactive) in each case.
Consider `Cc1cc2c(F)c(Oc3ncnn4cc(OC[C@@H](C)OC(=O)[C@H](C)N)c(C)c34)ccc2[nH]1` [BRIVANIB ALANINATE], for which the Kd (at Ephrin type-A receptor 1; in [1]; in [2]; in experiment [3]; in experiment [4]; in [5]) was > 30 µM (inactive) throughout. For the same compound, the Kd (in experiment [7]; in experiment [8]; in experiment [9]; on Ephrin type-A receptor 7) was > 30 µM (inactive) in each case.
On to `CNC(=O)CN1CCC(Oc2cc3c(Nc4cccc(Cl)c4F)ncnc3cc2OC)CC1` [SAPITINIB], for which the Kd on Ephrin type-A receptor 1 was 0.015 µM; in [1], > 30 µM (inactive); in [2], > 30 µM (inactive); in experiment [10], > 30 µM (inactive); in [4], > 30 µM (inactive); in experiment [5], > 30 µM (inactive). Moreover, the Kd (in experiment [6]; in [7]; in experiment [9]; on Ephrin type-A receptor 7) was > 30 µM (inactive) each time.

The record behind these values is ChEMBL document CHEMBL3991601, “The target landscape of clinical kinase drugs” (Science, 2017).
